According to patent publication US11306078B2, “Piperidine CXCR7 receptor modulators” (IDORSIA PHARMACEUTICALS LTD., priority 2016, dated 2022):

Biological target: human chemokine receptor CXCR7 (Homo sapiens (Human), UniProt P25106)
Assay: Tango CXCR7-bla U2OS beta-arrestin recruitment assay (beta-lactamase reporter, FRET), antagonism of CXCL12/SDF1-α;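 further: compounds preincubated 15 min before CXCL12 addition, then 22 h at 37 °C, FRET emission ratio read with CCF4-AM substrate after 2 h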
Type: cell-based
Details: antagonistic effect on CXCR7, Tango CXCR7-bla U2OS cells, CXCL12/SDF1-α at its EC80

Sequence of human chemokine receptor CXCR7 (P25106 whole entry): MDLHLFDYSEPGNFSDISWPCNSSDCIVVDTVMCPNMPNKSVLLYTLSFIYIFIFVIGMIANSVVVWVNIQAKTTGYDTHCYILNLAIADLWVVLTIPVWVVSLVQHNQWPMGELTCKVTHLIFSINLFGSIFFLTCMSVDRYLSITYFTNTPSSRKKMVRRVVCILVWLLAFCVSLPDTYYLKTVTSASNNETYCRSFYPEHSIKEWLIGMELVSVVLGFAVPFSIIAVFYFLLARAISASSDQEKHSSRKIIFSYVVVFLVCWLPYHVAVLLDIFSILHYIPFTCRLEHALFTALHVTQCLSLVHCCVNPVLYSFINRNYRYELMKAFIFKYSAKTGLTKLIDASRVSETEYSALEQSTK

Structure (SMILES): O=C(N[C@H]1CCN(CC2CC2)C[C@@H]1C(=O)NC1(c2ccccn2)CC1)c1nnc(-c2ccc(F)cc2F)o1 (single isomer, unassigned) [Example 3.016a, (3S,4S)-1-Cyclopropylmethyl-4-{[5-(2,4-difluoro-phenyl)-[1,3,4]oxadiazole-2-carbonyl]-amino}-piperidine-3-carboxylic acid (1-pyridin-2-yl-cyclopropyl)-amide or (3R,4R)-1-Cyclopropylmethyl-4-{[5-(2,4-difluoro-phenyl)-[1,3,4]oxadiazole-2-carbonyl]-amino}-piperidine-3-carboxylic acid (1-pyridin-2-yl-cyclopropyl)-amide]
- IC50: 90 nM

Structure (SMILES): O=C(N[C@@H]1CCN(CC2CC2)C[C@H]1C(=O)NC1(c2ncccn2)CC1)c1cc(-c2c(F)cc(F)cc2F)on1 (single isomer, unassigned) [Example 3.020a, (3R*,4R*)-1-Cyclopropylmethyl-4-{[5-(2,4,6-trifluoro-phenyl)-isoxazole-3-carbonyl]-amino}-piperidine-3-carboxylic acid (1-pyrimidin-2-yl-cyclopropyl)-amide]
- IC50: 271 nM

Structure (SMILES): O=C(N[C@@H]1CCN(CC2CC2)C[C@H]1C(=O)NC1(c2ncccn2)CC1)c1noc(-c2ccc(F)cc2F)c1F (single isomer, unassigned) [Example 3.022a, (3R,4R)-1-Cyclopropylmethyl-4-{[5-(2,4-difluoro-phenyl)-4-fluoro-isoxazole-3-carbonyl]-amino}-piperidine-3-carboxylic acid (1-pyrimidin-2-yl-cyclopropyl)-amide or (3S,4S)-1-cyclopropylmethyl-4-{[5-(2,4-difluoro-phenyl)-4-fluoro-isoxazole-3-carbonyl]-amino}-piperidine-3-carboxylic acid (1-pyrimidin-2-yl-cyclopropyl)-amide]
- IC50: 25 nM

Structure (SMILES): COc1ccccc1C(C)NC(=O)[C@H]1CN(CC2CC2)CC[C@@H]1NC(=O)c1cc(-c2ccc(F)cc2F)on1 (single isomer, unassigned) [Example 4.072a]
- IC50: 8 nM

Structure (SMILES): O=C(N[C@@H]1CCN(CC2CC2)C[C@H]1C(=O)NC1(c2ncccn2)CC1)c1cc(-c2c(F)cc(F)cc2F)on1 (single isomer, unassigned) [Example 30.20b, (3R*,4R*)-1-Cyclopropylmethyl-4-{[5-(2,4,6-trifluoro-phenyl)-isoxazole-3-carbonyl]-amino}-piperidine-3-carboxylic acid (1-pyrimidin-2-yl-cyclopropyl)-amide]
- IC50: 4 nM

Structure (SMILES): O=C(N[C@@H]1CCN(CC2CC2)C[C@H]1C(=O)NC1(c2ncccn2)CC1)c1cc(C2CC2)on1 (single isomer, unassigned) [Reference Compound 1a, (3R,4R)-4-[(5-Cyclopropyl-isoxazole-3-carbonyl)-amino]-1-cyclopropylmethyl-piperidine-3-carboxylic acid (1-pyrimidin-2-yl-cyclopropyl)-amide or (3S,4S)-4-[(5-cyclopropyl-isoxazole-3-carbonyl)-amino]-1-cyclopropylmethyl-piperidine-3-carboxylic Acid (1-pyrimidin-2-yl-cyclopropyl)-amide, reference compound]
- IC50 (geometric mean): > 10000 nM

Structure (SMILES): O=C(N[C@@H]1CCN(CC2CC2)C[C@H]1C(=O)NC1(c2ncccn2)CC1)c1cc(C2CC2)on1 (single isomer, unassigned) [Reference Compound 1b, (3R,4R)-4-[(5-Cyclopropyl-isoxazole-3-carbonyl)-amino]-1-cyclopropylmethyl-piperidine-3-carboxylic acid (1-pyrimidin-2-yl-cyclopropyl)-amide or (3S,4S)-4-[(5-cyclopropyl-isoxazole-3-carbonyl)-amino]-1-cyclopropylmethyl-piperidine-3-carboxylic Acid (1-pyrimidin-2-yl-cyclopropyl)-amide, reference compound]
- IC50 (geometric mean): > 10000 nM

Structure (SMILES): COC(=O)C1CN(C2CCCCC2)CCC1NC(=O)c1noc(-c2ccc(F)c(F)c2)n1 (stereo not shown) [BB 1.18c]
- IC50: 119 nM

Structure (SMILES): CN(C)C(=O)[C@@H]1CN(CC2CC2)CC[C@H]1NC(=O)c1cc(-c2c(F)cc(F)cc2F)on1 [Example 1.1]
- IC50: 128 nM

Structure (SMILES): Cc1cnc(CNC(=O)[C@@H]2CN(C3CCCCC3)CC[C@H]2NC(=O)c2cc(-c3ccc(F)cc3F)on2)s1 [Example 1.02]
- IC50: 198 nM

Structure (SMILES): O=C(N[C@@H]1CCN(C2CCCCC2)C[C@H]1C(=O)NCc1ccncc1)c1cc(-c2ccc(F)cc2F)on1 [Example 1.05]
- IC50: 223 nM

Structure (SMILES): CC(CNC(=O)[C@@H]1CN(C2CCCCC2)CC[C@H]1NC(=O)c1cc(-c2ccc(F)cc2F)on1)c1ccccc1 (stereo partly shown) [Example 1.06]
- IC50: 727 nM

Structure (SMILES): O=C(N[C@@H]1CCN(C2CCCCC2)C[C@H]1C(=O)N1CCC(c2ccccc2)C1)c1cc(-c2ccc(F)cc2F)on1 (stereo partly shown) [Example 1.07]
- IC50: 559 nM

Structure (SMILES): CC(C)(CC(F)(F)F)NC(=O)[C@@H]1CN(C2CCCCC2)CC[C@H]1NC(=O)c1cc(-c2ccc(F)cc2F)on1 [Example 1.08]
- IC50: 564 nM

Structure (SMILES): C[C@@H](NC(=O)[C@@H]1CN(C2CCCCC2)CC[C@H]1NC(=O)c1cc(-c2ccc(F)cc2F)on1)c1cnccn1 [Example 1.09]
- IC50: 35 nM

Structure (SMILES): COCC(C)(C)NC(=O)[C@@H]1CN(CC2CC2)CC[C@H]1NC(=O)c1cn(-c2ccc(F)cc2F)nn1 [Example 1.11]
- IC50: 535 nM

Structure (SMILES): C[C@@H]1CCC[C@H]1N1CC[C@@H](NC(=O)c2cn(-c3ccc(F)cc3F)nn2)[C@H](C(=O)N[C@H](C)c2ccccn2)C1 [Example 1.12]
- IC50: 789 nM

Structure (SMILES): C[C@@H](NC(=O)[C@@H]1CN(C2CCCC2)CC[C@H]1NC(=O)c1cc(-c2c(F)cc(F)cc2F)on1)c1cnccn1 [Example 1.13]
- IC50: 140 nM

Structure (SMILES): C[C@@H](NC(=O)[C@@H]1CN(C2CCCCC2)CC[C@H]1NC(=O)c1cc(-c2ccc(F)cc2F)no1)C1CCC1 [Example 1.14]
- IC50: 358 nM

Structure (SMILES): C[C@@H]1CCC[C@H]1N1CC[C@@H](NC(=O)c2cc(-c3ccc(F)cc3F)no2)[C@H](C(=O)N(C)C)C1 [Example 1.15]
- IC50: 155 nM

Structure (SMILES): C[C@@H](NC(=O)[C@@H]1CN(C2CCCCC2)CC[C@H]1NC(=O)c1noc(-c2ccc(F)cc2F)n1)c1cnccn1 [Example 1.16]
- IC50: 526 nM

Structure (SMILES): O=C(N[C@@H]1CCN(C2CCCC2)C[C@H]1C(=O)NC1(c2ccccn2)CC1)c1cc(-c2c(F)cc(F)cc2F)on1 [Example 1.17]
- IC50: 16 nM

Structure (SMILES): O=C(N[C@@H]1CCN(CC2CC2)C[C@H]1C(=O)NC1(c2ncccn2)CC1)c1cc(-c2ccccc2C(F)(F)F)on1 [Example 1.19]
- IC50: 294 nM

Structure (SMILES): O=C(N[C@H]1CCN(CC2CC2)C[C@@H]1C(=O)NC1(c2cnccn2)CC1)c1cc(-c2ccc(F)cc2F)on1 [Example 1.179, (3S,4S)-1-Cyclopropylmethyl-4-{[5-(2,4-difluoro-phenyl)-isoxazole-3-carbonyl]-amino}-piperidine-3-carboxylic acid (1-pyrazin-2-yl-cyclopropyl)-amide]
- IC50: 50 nM

Structure (SMILES): O=C(N[C@H]1CCN(C2CCCC2)C[C@@H]1C(=O)NC1(c2cnccn2)CC1)c1cc(-c2ccc(F)cc2F)on1 [Example 1.181, (3S,4S)-1-Cyclopentyl-4-{[5-(2,4-difluoro-phenyl)-isoxazole-3-carbonyl]-amino}-piperidine-3-carboxylic acid (1-pyrazin-2-yl-cyclopropyl)-amide]
- IC50: 104 nM
